These results are taken from patent US6350749B1, “Aminoguanidine hydrazone derivatives, process for producing the same and drugs thereof” (Takeda Chemical Industries, Ltd., priority 1998, dated 2002).

Counter-ions that a name gives are not always drawn. Like-named read-outs stand apart in the source and are kept apart here. Where only a bound is given, the exact number is not on record here.

One series addresses T1, Na—H exchange (Rattus norvegicus, UniProt P26431).
T1 construct: The blood was centrifuged at 3000 rpm for 5 seconds to obtain platelet rich plasma (PRP); from tissue; host or cells: platelets in platelet rich plasma from abdominal aortic blood of male Wistar rats
As to the kind of experiment: Rat platelet swelling in sodium propionate solution (light transmittance of PRP), inhibition of Na—H exchange. The conditions noted are these: for inhibition at 0.1 µM: 1 min, read-out: Inhibition Rate (%) [10^−7 M]. Format: cell-based. The method, then: Male Wistar rats (350-450 g) were anesthetized with sodium pentobarbital (50 mg/kg, i.p.). Using a disposable syringe pre-filled with 1.5 ml of 3.8% citric acid solution, 8.5 ml of blood was collected from the abdominal aorta. The blood was centrifuged at 3000 rpm for 5 seconds to obtain platelet rich plasma (PRP). The number of platelets in the PRP was counted by an automatic hemocytometer (Sysmex 2500, TOA Medical Electronics). The PRP was diluted with physiological saline to make the concentration of 40×10^4 platelets per 1 μl. A platelet aggregometer (Hematoracer, Niko Bioscience) was used for measurement of the platelet swelling. 200 μl of the PRP was poured into a cuvette and 600 μl of sodium propionate solution (Na propionate 135, glucose 10, Hepes 20, CaCl2 1, MgCl2 1; Units: mM; pH6.7) was added while stirring at 37° C. The change in the light transmittance of PRP which was an indicator of the platelet swelling was recorded on a plotter. The test compound was added 3 minutes before addition of the sodium propionate solution. The test compounds were dissolved in dimethylsulfoxide (DMSO).

[1] abbreviates: test compound 10^−7 M, rat platelet rich plasma, value 1 minute after sodium propionate solution, 100% = difference between 1% DMSO and HOE-642 (10^−5M).

T1 sequence (P26431 whole entry): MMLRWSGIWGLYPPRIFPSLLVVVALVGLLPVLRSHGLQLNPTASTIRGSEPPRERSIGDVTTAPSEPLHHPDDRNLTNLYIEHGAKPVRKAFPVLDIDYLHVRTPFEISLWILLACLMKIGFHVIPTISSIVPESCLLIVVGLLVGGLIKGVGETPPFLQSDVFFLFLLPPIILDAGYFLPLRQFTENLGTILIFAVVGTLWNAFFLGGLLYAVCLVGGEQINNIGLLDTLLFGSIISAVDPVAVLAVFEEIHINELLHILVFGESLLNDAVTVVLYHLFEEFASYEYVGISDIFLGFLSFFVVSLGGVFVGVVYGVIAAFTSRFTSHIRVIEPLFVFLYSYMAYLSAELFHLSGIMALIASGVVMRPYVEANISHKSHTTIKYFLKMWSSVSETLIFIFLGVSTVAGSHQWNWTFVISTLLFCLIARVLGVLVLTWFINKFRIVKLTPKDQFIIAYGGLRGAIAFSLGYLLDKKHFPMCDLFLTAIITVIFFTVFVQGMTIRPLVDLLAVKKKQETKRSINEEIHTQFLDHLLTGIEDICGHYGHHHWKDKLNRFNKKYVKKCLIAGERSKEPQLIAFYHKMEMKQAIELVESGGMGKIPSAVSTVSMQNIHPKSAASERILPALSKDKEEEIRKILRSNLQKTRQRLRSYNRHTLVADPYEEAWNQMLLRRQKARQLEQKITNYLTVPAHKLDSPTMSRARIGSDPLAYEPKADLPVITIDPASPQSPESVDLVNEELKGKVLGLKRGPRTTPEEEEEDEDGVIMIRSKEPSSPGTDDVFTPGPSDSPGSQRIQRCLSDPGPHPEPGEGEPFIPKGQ

In the case of `Cc1cn(S(C)(=O)=O)c2c1C(=NNC(=N)N)CC(c1ccccc1)C2.Cl` (stereo not shown), the melting point was 260 °C (dec.).

The compound `Cc1cc(Cl)c(C2CC(=NNC(=N)N)c3c(C)ccnc3C2)s1.Cl` (stereo not shown) yielded a melting point of 198 to 200 °C.

Regarding `Cc1ccccc1C1CC(=NNC(=N)N)c2c(C(F)(F)F)coc2C1.Cl` (stereo not shown), the melting point is 247 °C (dec.).

Take `Cl.Cn1ccc2c1CC(c1ccccc1)CC2=NNC(=N)N` (stereo not shown): the melting point is 205 °C (dec.).

In the case of `CS(=O)(=O)O.Cc1ccnc2c1C(=NNC(=N)N)CC(c1cc(Cl)sc1Cl)C2.O` (stereo not shown) (hydrate or solvate), the melting point lay within 239 to 241 °C.

Compound `Cc1ccnc2c1C(=NNC(=N)N)CC(c1cc(Cl)sc1Cl)C2` (racemic) [Compound 108, (±)-7-(2,5-dichlorothiophen-3-yl)-5-guanidinoimino-4-methyl-5,6,7,8-tetrahydroquinoline] came in with a melting point of 250 to 251 °C.

Take `CS(=O)(=O)O.Cc1ccnc2c1C(=NNC(=N)N)CC(c1ccccc1Cl)C2` (single isomer, unassigned; (-)) [Compound 64, (−)-7-(2-chlorophenyl)-5-guanidinoimino-4-methyl-5,6,7,8-tetrahydroquinoline methanesulfonate]: the melting point fell in the range of 194 to 195 °C. The inhibition at 0.1 µM at Na—H exchange (setting [1]) was 86%.

For the compound `Cc1ccnc2c1C(=NNC(=N)N)CC(c1cc(Cl)sc1Cl)C2` (single isomer, unassigned; (-)) [Compound 109, (−)-7-(2,5-dichlorothiophen-3-yl)-5-guanidinoimino-4-methyl-5,6,7,8-tetrahydroquinoline hydrochloride], the inhibition at 0.1 µM at Na—H exchange came out at 91%.

On to `Cc1ccnc2c1C(=NNC(=N)N)CC(c1cc(Cl)sc1Cl)C2` (single isomer, unassigned; (-)) [Compound 112, (−)-7-(2,5-dichlorothiophen-3-yl)-5-guanidinoimino-4-methyl-5,6,7,8-tetrahydroquinoline], for which the melting point fell in the range of 129 to 133 °C.

Compound `CS(=O)(=O)O.Cc1ccnc2c1C(=NNC(=N)N)CC(c1cc(Cl)sc1Cl)C2` (single isomer, unassigned; (-)) [Compound 113, (−)-7-(2,5-dichlorothiophen-3-yl)-5-guanidinoimino-4-methyl-5,6,7,8-tetrahydroquinoline methanesulfonate] had a melting point of 229 to 231 °C. In addition, the inhibition at 0.1 µM on Na—H exchange (setting [1]) stood at 100%.

In the case of `Cc1ccccc1C1CC(=NNC(=N)N)c2c(C)c[nH]c2C1.Cl` (stereo not shown) [Compound 6, 4-guanidinoimino-3-methyl-6-(2-methylphenyl)-4,5,6,7-tetrahydroindole hydrochloride], the melting point is 187 °C (dec.). For the same compound, the inhibition at 0.1 µM at Na—H exchange (setting [1]) came out at 86%.

Take `Cc1n[nH]c2c1C(=NNC(=N)N)CC(c1ccccc1Cl)C2` (stereo not shown) [Compound 21, 4-guanidinoimino-6-(2-chlorophenyl)-3-methyl-4,5,6,7-tetrahydroindazole hydrochloride]: at Na—H exchange (setting [1]), the inhibition at 0.1 µM came out at 72%.

For the compound `CCc1n[nH]c2c1C(=NNC(=N)N)CC(c1ccccc1Cl)C2.Cl` (stereo not shown) [Compound 27, 6-(2-chlorophenyl)-3-ethyl-4-guanidinoimino-4,5,6,7-tetrahydroindazole hydrochloride], the melting point fell in the range of 196 to 200 °C. In addition, the inhibition at 0.1 µM on Na—H exchange (setting [1]) turned out to be 76%.

Consider `Cc1coc2c1C(=NNC(=N)N)CC(c1cccs1)C2.Cl` (stereo not shown) [Compound 48, 4-guanidinoimino-3-methyl-6-(2-thienyl)-4,5,6,7-tetrahydrobenzofuran hydrochloride], for which the melting point is 285 °C (dec.). Besides, the inhibition at 0.1 µM on Na—H exchange (setting [1]) was found to be 70%.

As to `Cc1ccnc2c1C(=NNC(=N)N)CC(c1ccccc1F)C2` (stereo not shown) [Compound 59, 7-(2-fluorophenyl)-5-guanidinoimino-4-methyl-5,6,7,8-tetrahydroquinoline hydrochloride], the inhibition at 0.1 µM on Na—H exchange (setting [1]) stood at 72%.

With `Cc1ccnc2c1C(=NNC(=N)N)CC(c1ccccc1Cl)C2.Cl` (stereo not shown) [Compound 61, 7-(2-chlorophenyl)-5-guanidinoimino-4-methyl-5,6,7,8-tetrahydroquinoline hydrochloride], the melting point was 204 °C (dec.). Further, the “Inhibition Rate (%) [10^−7 M]” value on Na—H exchange (setting [1]) was found to be 78%.

In the case of `CS(=O)(=O)O.Cc1ccnc2c1C(=NNC(=N)N)CC(c1ccccc1Cl)C2` (stereo not shown) [Compound 65], the melting point was 194 to 196 °C.

As to `Cc1ccnc2c1C(=NNC(=N)N)CC(c1ccccc1O)C2.Cl` (stereo not shown) [Compound 68, 5-guanidinoimino-7-(2-hydroxyphenyl)-4-methyl-5,6,7,8-tetrahydroquinoline hydrochloride], the melting point was 161 °C (dec.). Besides, the inhibition at 0.1 µM at Na—H exchange (setting [1]) was found to be 70%.

As to `Cc1ccnc2c1C(=NNC(=N)N)CC(c1cccs1)C2.Cl` (stereo not shown) [Compound 70, 5-guanidinoimino-4-methyl-7-(2-thienyl)-5,6,7,8-tetrahydroquinoline hydrochloride], the melting point is 225 °C (dec.). In addition, on Na—H exchange (setting [1]), the inhibition at 0.1 µM came out at 81%.

As to `Cc1ccsc1C1CC(=NNC(=N)N)c2c(C)ccnc2C1.Cl` (stereo not shown) [Compound 73, 5-guanidinoimino-4-methyl-7-(3-methyl-2-thienyl)-5,6,7,8-tetrahydroquinoline hydrochloride], the melting point lay within 184 to 187 °C. The inhibition at 0.1 µM on Na—H exchange (setting [1]) came out at 76%.

As for `Cc1ccnc2c1C(=NNC(=N)N)CC(c1sccc1Cl)C2.Cl` (stereo not shown) [Compound 74, 7-(3-chloro-2-thienyl)-5-guanidinoimino-4-methyl-5,6,7,8-tetrahydroquinoline hydrochloride], the melting point was 203 °C (dec.). Besides, at Na—H exchange (setting [1]), the inhibition at 0.1 µM was 98%.

`COc1ccnc2c1C(=NNC(=N)N)CC(c1ccccc1Cl)C2.CS(=O)(=O)O` (stereo not shown) [Compound 79, 7-(2-chlorophenyl)-5-guanidinoimino-4-methoxy-5,6,7,8-tetrahydroquinoline methanesulfonate] displayed a melting point of 158 to 159 °C. On Na—H exchange (setting [1]), the inhibition at 0.1 µM is 77%.

`CCOc1ccnc2c1C(=NNC(=N)N)CC(c1ccccc1Cl)C2` (stereo not shown) [Compound 80, 7-(2-chlorophenyl)-4-ethoxy-5-guanidinoimino-5,6,7,8-tetrahydroquinoline hydrochloride]: on Na—H exchange (setting [1]), the inhibition at 0.1 µM was 75%.

For the compound `Cc1n[nH]c2c1C(=NNC(=N)NO)CC(c1ccccc1Cl)C2.Cl` (stereo not shown) [Compound 93, 6-(2-chlorophenyl)-4-(1-hydroxyguanidin-3-yl)imino-3-methyl-4,5,6,7-tetrahydroindazole hydrochloride], the melting point is 234 to 235 °C (dec.). For the same compound, the inhibition at 0.1 µM at Na—H exchange (setting [1]) worked out at 69%.

Turning to `CS(=O)(=O)O.Cc1ccnc2c1C(=NNC(=N)N)CC(c1cc(Cl)sc1Cl)C2` (stereo not shown) [Compound 111], the melting point was in the range of 225 to 229 °C.

For `Cc1n[nH]c2c1C(=NNC(=N)N)CC(c1sccc1Cl)C2.Cl` (stereo not shown) [Compound 119, 6-(3-chloro-2-thienyl)-4-guanidinoimino-3-methyl-4,5,6,7-tetrahydroindazole hydrochloride], the melting point was 204 °C (dec.). On Na—H exchange (setting [1]), the inhibition at 0.1 µM is 100%.

`Cc1ccnc2c1C(=NNC(=N)N)CC(c1ccsc1Br)C2.Cl` (stereo not shown) [Compound 123, 7-(2-bromothiophen-3-yl)-5-guanidinoimino-4-methyl-5,6,7,8-tetrahydroquinoline hydrochloride]: the melting point lay in the range of 243 to 245 °C. The inhibition at 0.1 µM at Na—H exchange (setting [1]) amounted to 81%.

As to `Cc1n[nH]c2c1C(=NNC(=N)N)CC(c1cc(Cl)sc1Cl)C2.Cl` (stereo not shown) [Compound 127, 6-(2,5-dichlorothiophen-3-yl)-4-guanidinoimino-3-methyl-4,5,6,7-tetrahydroindazole hydrochloride], the melting point was ≥ 300 °C. In addition, the inhibition at 0.1 µM at Na—H exchange (setting [1]) was 98%.

Turning to `Cc1n[nH]c2c1C(=NNC(=N)NO)CC(c1cc(Cl)sc1Cl)C2.Cl` (stereo not shown) [Compound 128, 6-(2,5-dichlorothiophen-3-yl)-4-(1-hydroxyguanidin-3-yl)imino-3-methyl-4,5,6,7-tetrahydroindazole hydrochloride], the melting point is 190 to 192 °C (dec.). The inhibition at 0.1 µM at Na—H exchange (setting [1]) came to 78%.

In the case of `CCc1cnnc2c1C(=NNC(=N)N)CC(c1cc(Cl)sc1Cl)C2` (stereo not shown) [Compound 134, 7-(2,5-dichlorothiophen-3-yl)-4-ethyl-5-guanidinoimino-5,6,7,8-tetrahydrocinnoline methanesulfonate], at Na—H exchange (setting [1]), the inhibition at 0.1 µM stood at 83%.

For `N=C(N)NN=C1CC(c2cc(Cl)sc2Cl)Cc2nncc(C(F)(F)F)c21` (stereo not shown) [Compound 135, 7-(2,5-dichlorothiophen-3-yl)-5-guanidinoimino-4-trifluoromethyl-5,6,7,8-tetrahydrocinnoline], the melting point is 265 to 266 °C (dec.).

The compound `CS(=O)(=O)O.Cc1ccnc2c1C(=NNC(=N)N)CC(c1sc(Cl)cc1Cl)C2` (stereo not shown) [Compound 143] had a melting point of 168 to 172 °C.

`CS(=O)(=O)O.Cc1ccnc2c1C(=NNC(=N)N)CC(c1sc(Cl)cc1Cl)C2` (stereo not shown) [Compound 144] displayed a melting point of 172 to 176 °C.

By melting point is commonly meant the temperature of the solid-liquid transition. The term inhibition denotes how much of the control response was suppressed.
